In article PMC3001897, “High-Throughput Chemical Screen Identifies a Novel Potent Modulator of Cellular Circadian Rhythms and Reveals CKIα as a Clock Regulatory Kinase” (PLoS Biology, 2010):
pIC50: −log10 of the molar value. Several values for one entry are separate records, joined by “and”; a condition that tells them apart may be missing. Identical values can stand only once.

What was measured:
Bmal1-dLuc U2OS cells [1] = assay: U2OS cell-based circadian assay (Bmal1-dLuc luminescence rhythms); set-up: species or system human
Procedure: (§1) The compound screen was done with the high-throughput circadian assay system as described previously. In brief, Bmal1-dLuc U2OS cells were suspended in the culture medium (DMEM supplemented with 10% fetal bovine serum, 0.29 mg/ml L-glutamine, 100 units/ml penicillin, and 100 µg/ml streptomycin) and plated onto 384-well white solid-bottom plates at 20 µl (2,000 cells) per well. After 2 d, 50 µl of the explant medium (DMEM supplemented with 2% B27, 10 mM HEPES, 0.38 mg/ml sodium bicarbonate, 0.29 mg/ml L-glutamine, 100 units/ml penicillin, 100 µg/ml streptomycin, 0.1 mg/ml gentamicin, and 1 mM luciferin, pH 7.2) was dispensed to each well, followed by the application of 500 nl of compounds (dissolved in DMSO; final 0.7% DMSO). The plate was covered with an optically clear film and set to luminescence monitoring system equipped with a CCD imager (ViewLux, Perkin Elmer). The luminescence was recorded every 2 h for 3–4 days. In follow-up studies, the luminescence was recorded every 100 min by using a microplate reader (Infinite M200, Tecan). The period parameter was obtained from the luminescence rhythm by curve fitting program CellulaRhythm or MultiCycle (Actimetrics), both of which gave similar results.

p38α = p38α (Homo sapiens, UniProt Q16539); assay: In vitro kinase assay, p38α (unpublished data); format: biochemical
Sequence of p38α (Q16539 whole entry): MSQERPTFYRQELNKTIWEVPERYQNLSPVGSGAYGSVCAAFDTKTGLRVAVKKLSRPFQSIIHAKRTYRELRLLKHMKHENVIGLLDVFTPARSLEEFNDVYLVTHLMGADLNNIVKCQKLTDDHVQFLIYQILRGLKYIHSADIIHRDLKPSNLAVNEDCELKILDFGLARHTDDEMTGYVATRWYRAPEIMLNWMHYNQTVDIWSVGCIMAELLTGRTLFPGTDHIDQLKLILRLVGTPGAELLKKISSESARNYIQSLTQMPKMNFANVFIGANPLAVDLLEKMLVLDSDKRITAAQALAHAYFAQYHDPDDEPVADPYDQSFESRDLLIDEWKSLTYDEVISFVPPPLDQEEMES

lung explants = assay: Circadian period in lung explants from mPer2Luc knockin mice; format: cell-based, mouse; settings: 0 to 9 µM
Procedure: (§2) Explants of lung and SCN were dissected from mPer2^Luc knockin mice and cultured in explant medium as described previously. The medium was changed every week with increasing concentration of longdaysin each time (from 0 to 9 µM, final 0.7% DMSO). The luminescence was recorded every 10 min with LumiCycle luminometer (Actimetrics), and the period parameter was obtained by using LumiCycle Analysis software (Actimetrics).

SCN explants = assay: Circadian period in SCN explants from mPer2Luc knockin mice; format: cell-based, mouse; settings: 0 to 9 µM
Procedure: as §2

[2] = system: protein kinases (CKIδ, CKIα, ERK2, CDK7, p38α; ERK1); assay: Affinity chromatography with compound 3 resin and U2OS cell lysate; format: binding, human
Procedure: U2OS cells kept in confluence (2×10^8 cells) were collected with ice-cold PBS and homogenized by using Dounce homogenizer in 5 ml of lysis buffer (25 mM MOPS, 15 mM EGTA, 15 mM MgCl2, 1 mM DTT, 60 mM β-glycerophosphate, 15 mM p-nitrophenyl phosphate, 1 mM Na3VO4, 1 mM NaF, 1 mM phenyl phosphate, 10 µg/ml leupeptin, 10 µg/ml aprotinin, 10 µg/ml soybean trypsin inhibitor, 100 µM benzamidine, pH7.2). The homogenate was sonicated and centrifuged (16,000×g) at 4°C for 20 min. The resulting supernatant was split into two, and each portion was incubated with or without 100 µM longdaysin (final 0.1% DMSO) at 4°C for 10 min (Figure 2C). Then, 120 µl of compound 3 [50% slurry in bead buffer (50 mM Tris, 250 mM NaCl, 5 mM EDTA, 5 mM EGTA, 0.1% NP-40, 5 mM NaF, 10 µg/ml leupeptin, 10 µg/ml aprotinin, 10 µg/ml soybean trypsin inhibitor, 100 µM benzamidine, pH 7.4)] was added to the mixture and incubated at 4°C for 1 h with rotation. […]
All gel bands were subjected to LC-MS/MS analysis as described previously. Tandem MS data were analyzed using Sequest (ThermoFinnigan, San Jose, CA; Version 3.0). […]
Scaffold (version Scaffold_2_05_00, Proteome Software Inc., Portland, OR) was used to validate MS/MS based peptide and protein identifications. […] Crude differential quantitation of proteins identified in both pulldown experiments was performed by comparing the number of assigned peptides.

Bmal1-dLuc U2OS cells [3] = assay: Cytotoxicity in the U2OS circadian assay; format: cell-based, human
Procedure: as §1

CKIδ = CKIδ (Homo sapiens, UniProt P48730); assay: In vitro kinase assay, CKIδ; format: biochemical; set-up: purchased Millipore 14-520; settings: ATP 5 µM; from Figure 2E
Sequence of CKIδ (P48730 whole entry, species assumed): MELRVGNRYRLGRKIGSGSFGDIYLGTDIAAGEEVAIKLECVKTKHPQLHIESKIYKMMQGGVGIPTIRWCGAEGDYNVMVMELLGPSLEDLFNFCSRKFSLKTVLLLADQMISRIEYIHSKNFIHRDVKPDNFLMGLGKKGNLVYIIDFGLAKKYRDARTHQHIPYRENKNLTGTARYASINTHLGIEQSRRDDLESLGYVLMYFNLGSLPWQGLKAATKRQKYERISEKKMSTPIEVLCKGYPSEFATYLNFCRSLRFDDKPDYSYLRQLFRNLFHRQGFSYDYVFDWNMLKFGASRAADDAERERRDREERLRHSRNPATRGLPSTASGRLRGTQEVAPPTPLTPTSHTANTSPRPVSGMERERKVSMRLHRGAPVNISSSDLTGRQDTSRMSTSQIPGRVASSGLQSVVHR
Procedure: The CKIδ, CKIα, CDK7, and ERK2 kinase assays were performed on 384-well plates (10 µl volume). The reaction mixture was as follows: for CKIδ, 2 ng/µl CKIδ (Millipore, 14-520), 50 µM peptide substrate RKKKAEpSVASLTSQCSYSS corresponding to human PER2 Lys659-Ser674 [47], and CKI buffer (40 mM Tris, 10 mM MgCl2, 0.5 mM DTT, 0.1 mg/ml BSA, pH 7.5); for CKIα, 1 ng/µl CKIα (Invitrogen, PV3850), 50 µM CKI peptide substrate (Anaspec, 60547-1), and CKI buffer; for CDK7, 5 ng/µl CDK7 (Millipore, 14-476), 100 µM Cdk7/9 peptide substrate (Millipore, 12-526), and CKI buffer; for ERK2, 1.5 ng/µl ERK2 (Millipore, 14-550), 0.8 µg/µl MBP (Millipore, 13-104), and ERK buffer (50 mM Tris, 10 mM MgCl2, 0.5 mM DTT, 1 mM EGTA, pH 7.5). Five hundred nl of compound was added to the mixture (final 5% DMSO), and the reaction was started by adding ATP (final 5 µM). After incubation at 30°C for 3h, 10 µl of Kinase-Glo Luminescent Kinase Assay reagent (Promega) was added, and the luminescence was detected to determine remaining ATP amount. […] IC50 value was obtained by using Prism software (GraphPad Software).

[4] = Bmal1-dLuc U2OS cells, from Figure 1B

CC(C)n1cnc2c(NCc3cccc(C(F)(F)F)c3)ncnc21 [Longdaysin, 9-isopropyl-N-(3-(trifluoromethyl)benzyl)-9H-purin-6-amine]
Period change (lengthening) (Bmal1-dLuc U2OS cells [1]; 10 µM, U2OS cells): > 10 h and 13 h
Concentration for period change, 5 h (Bmal1-dLuc U2OS cells [1]; [4]): 1.5 µM
Concentration for period change, 10 h (Bmal1-dLuc U2OS cells [1]; [4]): 5.7 µM
Concentration for period change, 15 h (Bmal1-dLuc U2OS cells [1]; [4]): 13 µM
Potency relative to compound 1 (times more potent) (Bmal1-dLuc U2OS cells [1]; period lengthening): 3 times
Reversibility of period effect after washout (Bmal1-dLuc U2OS cells [1]; washout, U2OS cells, mouse fibroblasts, lung (Figure S2)): reversible
Effect on p38α activity (p38α): much less effect
Effect on circadian period (lung explants): dose-dependent period lengthening
Effect on circadian period (SCN explants): dose-dependent period lengthening
Binding of protein kinases to the affinity resin on competition ([2]; 100 µM free longdaysin as soluble competitor): decreased binding in the presence of free longdaysin
Signal reduction of listed binding proteins upon competition ([2]; 100 µM free longdaysin, tandem MS spectra): ≥ 3 fold
Concentration showing cytotoxicity (Bmal1-dLuc U2OS cells [3]): 71 µM
pIC50 (CKIδ): 5.06
